Source: patent publication EP1285920A1, “C10 Ester sustituted taxanes as antitumor agents” (Florida State University Research Foundation, Inc., priority 2001, dated 2003)
pIC50: −log10 of the molar value. Read-outs that look alike come from different tables or passages of the source.

Legend:
DU145 prostate carcinoma = test system: DU145 prostate carcinoma
From the text: Dosing was initiated on Day 1. […] Treatment groups are detailed in Table 5.

A375 melanoma = details: for survival extension compared to Group 1 controls: i.v. qd x 1; for MDS (n): mean days of survival until neoplasm reached 2.0 g, terminated Day 60; for MDS (n) / Toxic Deaths / Complete Response / Partial Response / Stable Disease / Survivors / Mean Score: i.v. qd x 1 at estimated MTD (Taxol 24 mg/kg, Taxotere 70 mg/kg), 6 mice/group (Taxotere 7); for Toxic Deaths / Complete Response / Partial Response / Stable Disease / Survivors: number of mice; for Complete Response / Partial Response / Stable Disease / Survivors: Day 60; for Mean Score: tumor scoring system
Protocol: Dosing was initiated on Day 1. […] Taxotere was given i.v. on a qd x 1 schedule at a dose of 70 mg/kg. […] The study was terminated on Day 60. Treatment groups are detailed in Table 9.

VM46 colon carcinoma = details: for Complete Response / Partial Response / Stable Disease / Survivors: Day 64
Protocol: Dosing was initiated on Day 1. […] Taxotere was given i.v. at a dose of 70 mg/kg on a qd x 1 schedule.

[1] = test system: Panc-1 pancreatic carcinoma; test: In vivo evaluation against Panc-1 human pancreatic carcinoma (Example 17)
HCT116 = test: In Vitro cytotoxicity measured by the cell colony formation assay; type: cell-based, human; details: Homo sapiens, HCT-116; read-out: IN VITRO ID 50 HCT116
Outline: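 Four hundred cells per dish in McCoy's 5a medium with 10% FBS were allowed to attach for 5 h at 37 °C. They were then exposed to compound for 72 h at 37 °C, added as a 10× stock made fresh in medium. After HBSS rinsing and refeeding, colonies were counted after 7 days.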

HCT116 carcinoma = test system: HCT116 carcinoma
Protocol: Antitumor compounds were formulated for an i.v. dosing regime and were prepared in the following vehicle: 5% ethanol, 5% Cremophor and 90% isotonic saline.
(§1) The antitumor compounds were given intravenously in a single maximum tolerated dose (MTD) appropriate for each compound. […] The MTDs for the antitumor compounds were calculated from earlier single dose data for mice receiving i.v. administration of these compounds. All vehicle control animals in the split dosing regimes were dosed twice intravenously with half of the total volume being given separated by one hour. The study was terminated on Day 60.
A complete response is obtained if the tumor is not palpable at the end of the study.

MX-1 carcinoma = test system: MX-1 carcinoma
Protocol: Thirteen antitumor compounds were formulated for an i.v. dosing regime (single i.v. bolus, qd x 1 schedule) prepared in the following vehicle: 5% ethanol, 5% Cremophor and 90% isotonic saline.
as §1, with “half” for “half of”
A complete response is obtained if the tumor is not palpable at the end of the study. […]

A2780 ovarian carcinoma = test system: A2780 ovarian carcinoma
Protocol: Dosing was initiated on Day 1. […] Taxotere was given i.v. on a qd x 1 schedule at a dose of 70 mg/kg. […] The study was terminated on Day 60. Treatment groups are detailed in Table 7.

[2] = number of 5 mice, i.v. qd x 1 at estimated MTD (Taxol 24 mg/kg split), Day 91
[3] = number of mice, i.v. qd x 1, mg/kg: Taxol 24, 0499 77, 0503 72.6, 0670 123.1, 0706 107.6, 0838 72.6, 0854 46.6, 0983 67.4, Taxotere 70, 6 mice/group
[4] = number of mice, i.v. qd x 1, mg/kg: Taxol 36, 0499 77, 0503 72.6, 0670 123.1, 0706 107.6, 0838 72.6, 0854 76.9, 6 mice/group, Day 60
[5] = number of mice, i.v. qd x 1 at estimated MTD (Taxol 24 mg/kg, Taxotere 70 mg/kg, 0983 72.6 mg/kg), 5 mice/group (Taxotere 6)
[6] = number of mice, i.v. qd x 1 at estimated MTD (Taxol 24 mg/kg, Taxotere 70 mg/kg, 0983 72.6 mg/kg), 5 mice/group (Taxotere 6), Day 60

## CC(=O)O[C@@]12CO[C@@H]1C[C@H](O)[C@@]1(C)C(=O)[C@H](OC(=O)C3CC3)C3=C(C)[C@@H](OC(=O)[C@H](O)[C@H](C=C(C)C)NC(=O)OC(C)(C)C)C[C@@](O)([C@@H](OC(=O)c4ccccc4)[C@H]21)C3(C)C [Compound 0838]
DU145 prostate carcinoma; DU145, i.v. qd x 1
  antitumor activity: active
DU145 prostate carcinoma; DU145, i.v. qd x 1, five mice per group
  complete responses: 2
DU145 prostate carcinoma; i.v. qd x 1 at estimated MTD (Taxol 24 mg/kg split), 5 mice/group, Day 91
  Mean Score: 7 ± 1.5
DU145 prostate carcinoma; number of 5 mice, tumor did not reach 1.5 g by end of study, i.v. qd x 1 at estimated MTD (Taxol 24 mg/kg split), Day 91
  Stable Disease: 1
DU145 prostate carcinoma; number of 5 mice, i.v. qd x 1 at estimated MTD (Taxol 24 mg/kg as two split doses), Day 91
  Toxic Deaths: 0
DU145 prostate carcinoma; [2]
  Complete Response: 2
  Partial Response: 1
  Survivors: 4
A375 melanoma; A375
  survival extension compared to Group 1 controls: 133%
A375 melanoma
  MDS (n): 33.5 ± 3.4 (5) days
  Toxic Deaths: 0
  Complete Response: 1
  Partial Response: 0
  Stable Disease: 0
  Survivors: 1
  Mean Score: 3.8 ± 1.2
VM46 colon carcinoma; VM46, i.v. qd x 1, six mice per group
  Toxic Deaths: no toxic deaths
VM46 colon carcinoma; [3]
  Toxic Deaths: 0
  Complete Response: 0
  Partial Response: 1
  Stable Disease: 3
  Survivors: 4
[1]; Panc-1 (Example 17), i.v. qd x 1 (compounds estimated MTD; Taxol 36 mg/kg split), days until tumor 1.5 g, ended Day 60
  MDS: 47 to 56 days
[1]; Panc-1 (Example 17), i.v. qd x 1, six mice per group
  Toxic Deaths: One
[1]; mean days of survival until neoplasm reached 1.5 g, i.v. qd x 1, mg/kg: Taxol 36, 0499 77, 0503 72.6, 0670 123.1, 0706 107.6, 0838 72.6, 0854 76.9, 6 mice/group, terminated Day 60
  MDS (n): 54.2 ± 0.9 (2) days
[1]; number of mice, i.v. qd x 1, mg/kg: Taxol 36, 0499 77, 0503 72.6, 0670 123.1, 0706 107.6, 0838 72.6, 0854 76.9, 6 mice/group
  Toxic Deaths: 1
[1]; [4]
  Complete Response: 0
  Partial Response: 2
  Stable Disease: 3
  Survivors: 3
[1]; tumor scoring system, i.v. qd x 1, mg/kg: Taxol 36, 0499 77, 0503 72.6, 0670 123.1, 0706 107.6, 0838 72.6, 0854 76.9, 6 mice/group
  Mean Score: 3.6 ± 1.1

## CCCC(=O)O[C@H]1C(=O)[C@@]2(C)[C@H]([C@H](OC(=O)c3ccccc3)[C@]3(O)C[C@H](OC(=O)[C@H](O)[C@@H](NC(=O)OC(C)(C)C)c4ccco4)C(C)=C1C3(C)C)[C@]1(OC(C)=O)CO[C@@H]1C[C@@H]2O [Compound 0983]
HCT116
  pIC50: > 9.00
HCT116 carcinoma; HCT116, single i.v. MTD, Days 6-10
  group mean weight losses: over 20%
HCT116 carcinoma; iv
  Partial Response: 1
HCT116 carcinoma; iv, 1440 h
  Complete Response: 2
  Mean Score: 5.8 ± 2.4
  Stable Disease: 0
HCT116 carcinoma; number of 5 mice, i.v. qd x 1 at MTD, Day 60, doses as in E3
  Survivors: 3
HCT116 carcinoma; number of 5 mice, i.v. qd x 1 at MTD, Day 60, mg/kg: Taxol 36 (split doses), 0503 72.6, 0536 49, 0663 159, 0670 123, 0687 159, 0706 108, 0908 159, 0947 76.9, 0951 72.6, 0983 72.6, 0999 49, 1003 49, 1011 108
  Toxic Deaths: 2
MX-1 carcinoma; iv
  Partial Response: 0
MX-1 carcinoma; iv, 1440 h
  Complete Response: 6
  Mean Score: 10 ± 0
  Stable Disease: 0
MX-1 carcinoma; number of 6 mice, i.v. qd x 1 at MTD, Day 60, doses as in E17
  Survivors: 6
MX-1 carcinoma; number of 6 mice, i.v. qd x 1 at MTD, Day 60, mg/kg: Taxol 36 (split dose), 0503 72.6, 0536 49, 0663 159, 0670 123, 0687 159, 0706 108, 0908 159, 0947 76.9, 0951 72.6, 0983 67.4, 0999 49, 1003 49, 1011 108
  Toxic Deaths: 0
A2780 ovarian carcinoma; iv, 72.6 mg/kg
  Mean Score: 0 ± 0
A2780 ovarian carcinoma; iv, 72.6 mg/kg, 1440 h
  Complete Response: 0
  Partial Respons: 0
  Stable Disease: 0
A2780 ovarian carcinoma; [5]
  Toxic Deaths: 5
A2780 ovarian carcinoma; [6]
  Survivors: 0
VM46 colon carcinoma; VM46, i.v. qd x 1 at estimated MTD
  response rate: 0%
VM46 colon carcinoma; iv
  Mean Score: 1.7 ± 0.8
VM46 colon carcinoma; iv, 1536 h
  MDS (n): 56.0 ± 6.8 (2) days
VM46 colon carcinoma; [3]
  Toxic Deaths: 3
  Complete Response: 0
  Partial Response: 0
  Stable Disease: 1
  Survivors: 1

## CC(=O)O[C@@]12CO[C@@H]1C[C@H](O)[C@@]1(C)C(=O)[C@H](O)C3=C(C)[C@@H](OC(=O)[C@H](O)[C@@H](NC(=O)OC(C)(C)C)c4ccccc4)C[C@@](O)([C@@H](OC(=O)c4ccccc4)[C@H]21)C3(C)C [Taxotere, docetaxel, reference compound]
HCT116
  pIC50: 9.22
A2780 ovarian carcinoma; A2780, i.v. qd x 1
  antitumor activity: more active than Taxol
  survival extension compared to Group 1 controls: 134%
A2780 ovarian carcinoma; A2780, i.v. qd x 1 (compounds estimated MTD; Taxol 24 mg/kg split; Taxotere 70 mg/kg), days until tumor 2.0 g, ended Day 60
  MDS: 27.4 days
A2780 ovarian carcinoma; mean days of survival until neoplasm reached 2.0 g, i.v. qd x 1 at estimated MTD (Taxol 24 mg/kg, Taxotere 70 mg/kg, 0983 72.6 mg/kg), 5 mice/group (Taxotere 6), terminated Day 60
  MDS (n): 27.4 ± 3.5 (6) days
A2780 ovarian carcinoma; [5]
  Toxic Deaths: 0
A2780 ovarian carcinoma; [6]
  Complete Response: 0
  Partial Respons: 0
  Stable Disease: 0
  Survivors: 0
A2780 ovarian carcinoma; tumor scoring system, i.v. qd x 1 at estimated MTD (Taxol 24 mg/kg, Taxotere 70 mg/kg, 0983 72.6 mg/kg), 5 mice/group (Taxotere 6)
  Mean Score: 2.5 ± 0.3
A375 melanoma; A375
  survival extension compared to Group 1 controls: 49%
A375 melanoma; A375, i.v. qd x 1 (Taxol 24 mg/kg split; Taxotere 70 mg/kg), days until tumor 2.0 g, ended Day 60
  MDS: 21.5 days
A375 melanoma
  MDS (n): 21.5 ± 0.5 (7) days
  Toxic Deaths: 0
  Complete Response: 0
  Partial Response: 0
  Stable Disease: 0
  Survivors: 0
  Mean Score: 2 ± 0
VM46 colon carcinoma; VM46, i.v. qd x 1 (Taxol 24 mg/kg split; Taxotere 70 mg/kg), days until tumor 1.5 g
  MDS: 45.3 days
VM46 colon carcinoma; mean days of survival until neoplasm reached 1.5 g, i.v. qd x 1, mg/kg: Taxol 24, 0499 77, 0503 72.6, 0670 123.1, 0706 107.6, 0838 72.6, 0854 46.6, 0983 67.4, Taxotere 70, 6 mice/group, terminated Day 64
  MDS (n): 45.3 ± 3.6 (6) days
VM46 colon carcinoma; [3]
  Toxic Deaths: 0
  Complete Response: 0
  Partial Response: 0
  Stable Disease: 0
  Survivors: 0
VM46 colon carcinoma; tumor scoring system, i.v. qd x 1, mg/kg: Taxol 24, 0499 77, 0503 72.6, 0670 123.1, 0706 107.6, 0838 72.6, 0854 46.6, 0983 67.4, Taxotere 70, 6 mice/group
  Mean Score: 2 ± 0
